Test results taken from patent publication US20230357292A1, “MULTI-COORDINATE GOLD-PHOSPHINE COMPOUNDS AND METHOD OF USE” (University of Kentucky Research Foundation, priority 2020, published 2023).

Columns and labels:
[1] = 37° C.
Experimental: To determine the stability of gold compounds under physiological conditions in the presence of biological nucleophiles, UV absorbance measurements were conducted over a 24 h time period. Briefly, AuPhos was dissolved in media from a DMSO stock. To this solution was added 10 mM L-glutathione.
To study the stability of the gold(III) compounds in solution, the UV-vis profile of the representative compounds was evaluated in biologically relevant media at physiological temperature of 37° C. Given the common limitation of gold compounds to promiscuously bind thiol containing biomolecules, the interaction of gold(III) complex AuPhos89 was investigated with physiologically relevant concentration of L-glutathione (10 mM) in Dubelcco modified essential medium (DMEM).

[2] = system: isolated mitochondria from the liver of C57BL/6J mice; settings: 1 μM, in the presence of oligomycin; dose-dependent up to about 10 μM
Experimental: (§1) Analysis. The initial step of Seahorse XF96 analysis included optimization of the cell density. In this stage, isolated mitochondria (30 μg) or MDA-MB-231 cells were seeded at a range of densities from 2000 cells/well to 100,000 cells/well, followed by optimization of the FCCP injection concentration used (0.6 μM of 1.2 μM). […] All Seahorse XF96 experiments with MDA-MB-231 were performed under these conditions. The cells were seeded the night prior to the experiment with a final volume of 100 μL and incubated overnight at 37° C. AuPhos-89 was prepared as a stock in DMSO/DMEM (% v/v=20:80) and diluted to a working concentration of 100 μM with Seahorse XF96 assay buffer and then subsequently serial diluted by 10× to achieve multiple concentrations. The assay was performed using a pneumatic injection method of AuPhos-89, with the final injection concentrations of 0.01, 0.1, 1, and 10 μM. This was followed by injection of oligomycin (1.5 μM), FCCP (0.6 μM) and rotenone/antimycin A (0.5 μM).

MDA-MB-231 cells = settings: live MDA-MB-231 cells, mito-stress test
Experimental: as §1

For `[Cl-].[Cl][Au-]1([c]2ccccc2-c2ccccn2)[P+](c2ccccc2)(c2ccccc2)c2ccccc2[P+]1(c1ccccc1)c1ccccc1` [AuPhos-89, (2-phenylpyridine)[1,2-Bis(diphenylphosphino)benzene]gold(III) Dichloride], the “stability, UV-vis absorption with L-glutathione” value ([1]; 10 mM L-glutathione in media (DMEM), 24 h) was “no alteration to the absorption band”, the “stability, UV-vis absorption in RPMI-1640” value ([1]; RPMI-1640, 24 h) was “no changes to the absorption spectra” and the “mitochondrial oxygen consumption rate (OCR)” value [2] was “increased oxygen consumption”. For the same molecule, the ATP production (MDA-MB-231 cells) was “diminished ATP production” and the proton leak (MDA-MB-231 cells) was “acutely induced proton leak”.
